Consider three substances from patent publication US20020012949A1, “Assay systems for leptin-enhancing agents” (priority 1997, published 2002).

The target in assay [1] is T1, TrkC--OB-R chimera (TOBR) (Homo sapiens, UniProt P48357+Q16288).
T1 construct: TrkC (amino acids 1 to 458) to the cytoplasmic domain of OB-R (amino acids 865-1165); expressed in transfected cells; host or cells: COS-7
Briefly: Immunoprecipitation and western blotting of tyrosine phosphorylation, NT-3-stimulated COS cells expressing TOBR. It counts as cell-based. To be noted: 50 ng/ml human NT-3 for 15 min. On the procedure:
The cytoplasmic domain and full-length human OB-R was cloned by PCR using human fetal liver and adipocyte cDNA (Clontech) and cloned into the expression vectors pCMX and pMT21. Chimeric receptors were constructed by fusing the extracellular domain and transmembrane domain of TrkC (amino acids 1 to 458) to the cytoplasmic domain of OB-R (amino acids 865-1165). A triple myc epitope tag was added at the C-terminus of all OB-R constructs (18). Truncation and point mutant constructs were generated by PCR and the sequences of all constructs were verified. Expression constructs were transfected into COS-7 cells using lipofectamine (GIBCO-BRL); 36-48 hours after transfection, cells were starved for either 2 hour,s for chimeric receptors or overnight for full-length receptors prior to stimulation.
Cells were stimulated with 50 ng/ml of human NT-3 for 15 min or 100 ng/ml of human leptin (R&D Systems) for 10 min. Cells were then lysed in a 1% Brij 96 buffer and receptor was immunoprecipitated with anti-myc antibody 9E10 (18) followed by protein G-sepharose (Pharmacia). Unbound lysate was then immunoprecipitated with anti-P-Tyr antibody (UBI, Lake Placid) or agarose-conjugated anti-SHP-2 antibody (Santa Cruz Biotechnology). […] Endogenous STAT3, SHP-2, Jak1 and Jak2 is being detected in all immunoblotting experiments. […]

Assay [2] addresses T2, TOBR (TrkC-OB-R chimeric receptor) (Homo sapiens, UniProt P48357+Q16288).
T2 construct: TrkC (amino acids 1 to 458) to the cytoplasmic domain of OB-R (amino acids 865-1165); expressed in transfected cells; host or cells: NBFL neuroblastoma cells
Description: Luciferase reporter gene assay, TrkC-OB-R chimeric receptor TOBR in neuroblastoma (NBFL) cells. In kind it is cell-based. Conditions: NT-3 at 20 ng/ml for 36 hours. For orientation: Reporter assays use an easily measured gene product as a stand-in for the process of interest.

The target in the next assay is T3, TOBRY986F (Homo sapiens, UniProt P48357+Q16288, Y986F).
T3 construct: TrkC (amino acids 1 to 458) to the cytoplasmic domain of OB-R (amino acids 865-1165); expressed in transfected cells; host or cells: NBFL neuroblastoma cells
Briefly: Luciferase reporter gene assay, TrkC-OB-R chimeric receptor TOBRY986F in neuroblastoma (NBFL) cells. In kind it is cell-based. Conditions: NT-3 at 20 ng/ml for 36 hours.

Another assay deals with T4, GST-SHP1-SH2 (Homo sapiens, UniProt P29350).
T4 construct: Amino acids 2-221 of SHP1 were cloned as a EcoRI/BglII fragment into pGEX-3X; made in house; host or cells: E. coli
T4 sequence (P29350 2-221): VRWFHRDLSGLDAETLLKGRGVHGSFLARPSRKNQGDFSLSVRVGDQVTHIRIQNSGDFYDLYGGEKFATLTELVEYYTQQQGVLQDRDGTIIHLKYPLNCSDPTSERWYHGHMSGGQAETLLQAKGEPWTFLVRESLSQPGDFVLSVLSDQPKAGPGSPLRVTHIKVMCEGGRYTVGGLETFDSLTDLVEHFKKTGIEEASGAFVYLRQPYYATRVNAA
Briefly: Binding to GST-SHP1-SH2 by immunoprecipitation and western blot. Conditions: 200 nM GST-SHP1-SH2, 15 nM phosphopeptide or cytoplasmic domain fusion, TBST, 4° C. overnight. On the procedure:
The GST-SHP1-SH2 construct consists of the two SH2 domains of SHP1fused downstream of GST. Amino acids 2-221 of SHP1 were cloned as a EcoRI/BglII fragment into pGEX-3X and expressed in E. coli.
(§1) Bindings were done as immunoprecipitations. Binding concentrations were typically 200 nM GST-SHP2-SH2 or GST-SHP1-SH2 and 15 nM phosphopeptide or cytoplasmic domain fusion in TBST (20 mM Tris, 150 mM NaCl, 0.1% Tween 20, pH 7.4) at 4° C. overnight. After binding either anti-flag mAb, M2, was added (for the phosphopeptide and flag tagged GST-OB-R-cyto) or anti-myc mAb, 9E10, was added (for the myc tagged GST-OB-R-cyto) and the proteins were precipitated with protein G-sepharose. Proteins were then detected on western blots using anti-GST polyclonal antibodies. For the EPOR-cyto-Trx fusion, the protein complexes were precipitated with glutathione-sepharose and the EPOR-cyto-Trx fusion was detected with anti-Trx polyclonal antibodies.
For orientation: A western blot detects proteins with antibodies after separation by electrophoresis.

Assay [3] relates to EPOR-cyto-Trx and GST-SHP1-SH2. Briefly: Competition of EPOR-cyto-Trx for GST-SHP1-SH2 binding. To be noted: 4 μM peptide, 15 nM EPOR-cyto-P, 200 nM GST-SHP1-SH2. On the procedure: FIG. 10. Competition for GST-SHP1-SH2 or GST-SHP2-SH2 binding to EPOR-cyto-P by a phosphopeptide derived from the sequence surrounding Y401 of the cytoplasmic domain of the EPO receptor. 200 nM GST-SHP1-SH2 or GST-SHP2-SH2, 15 nM EPOR-cyto-P, with and without 4 μM peptide were incubated together. GST-SHP1-SH2 or GST-SHP2-SH2 was immunoprecipitated with Glutathione Sepharose (Pharmacia), and co-precipitating EPOR-cyto-P was visualized with an anti-Trx antibody.
as §1
In this competition the complexes were precipitated with glutathione-sepharose and the EPOR-cyto-Trx was detected by western blot using anti-Trx antibodies. […]

A further assay addresses T5, GST-SHP2-SH2 (Homo sapiens, UniProt Q06124).
T5 construct: The fusion has aa 2-224 of SHP2 cloned as an EcoRI/BamHI fragment into pGEX-3X; made in house; host or cells: E. coli
T5 sequence (Q06124 2-224): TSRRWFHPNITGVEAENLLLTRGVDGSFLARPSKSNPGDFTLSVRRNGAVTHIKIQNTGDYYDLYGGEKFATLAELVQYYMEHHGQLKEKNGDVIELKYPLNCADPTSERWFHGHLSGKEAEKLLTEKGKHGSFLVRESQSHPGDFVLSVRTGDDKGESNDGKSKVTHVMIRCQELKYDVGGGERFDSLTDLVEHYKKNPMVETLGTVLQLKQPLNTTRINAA
Description: Binding to GST-SHP2-SH2 by immunoprecipitation and western blot. To be noted: 200 nM GST-SHP2-SH2, 15 nM phosphopeptide or cytoplasmic domain fusion, TBST, 4° C. overnight.
Text: The GST-SHP2-SH2 construct consists of the two SH2 domains of SHP2fused downstream of glutathione-S-transferase (GST) from Schistosoma japonicum. The fusion has aa 2-224 of SHP2 cloned as an EcoRI/BamHI fragment into pGEX-3X and was expressed in E. coli. The SHP2-SH2-Fc construct consists of the same amino acids as the above fusion fused to human IgG-Fc as a BlpI/SrfI fragment in pMT21 and was expressed in COS-7 cells.
as §1

Assay [4] deals with T6, GST-OB-R-cyto/3myc and GST-SHP1-SH2 (Homo sapiens, UniProt P29350).
T6 construct: Amino acids 2-221 of SHP1 were cloned as a EcoRI/BglII fragment into pGEX-3X; made in house; host or cells: E. coli (OB-R-cyto co-expressed with the ELK tyrosine kinase)
T6 sequence (P29350 2-221): T4 sequence (P29350 2-221)
Description: Competition for binding of GST-OB-R-cyto/3myc and GST-SHP1-SH2. Conditions: 4 μM phosphopeptide, 15 nM cytoplasmic domain, 200 nM GST-SHP1-SH2. On the procedure:
(§2) FIG. 9. Competition for GST-SHP1-SH2 or GST-SHP2-SH2 binding to OB-R-cyto-P by a phosphopeptide containing the sequence surrounding Y986 in OB-R. 200 nM GST-SHP1-SH2 or GST-SHP2-SH2, 15 nM OB-R-cyto-P, with and without 4 μM peptide were incubated together. OB-R-cyto-P was immunoprecipitated with an antibody to the myc epitope tag, and co-precipitating GST-SHP1-SH2 or GST-SHP2-SH2 was visualized with an anti-GST antibody.
(§3) Bindings were done as immunoprecipitations. Binding concentrations were typically 200 nM GST-SHP2-SH2 or GST-SHP1-SH2 and 15 nM phosphopeptide or cytoplasmic domain fusion in TBST (20 mM Tris, 150 mM NaCl, 0.1% Tween 20, pH 7.4) at 4° C. overnight. […] Proteins were then detected on western blots using anti-GST polyclonal antibodies. For the EPOR-cyto-Trx fusion, the protein complexes were precipitated with glutathione-sepharose and the EPOR-cyto-Trx fusion was detected with anti-Trx polyclonal antibodies.
(§4) In this experiment the SH2 domain, the cytoplasmic domain, and the peptide were mixed and allowed to reach equilibrium. The receptor cytoplasmic domain was precipitated with anti-myc mAb and complexed GST-SHP1-SH2 and GST-SHP2-SH2 were detected by western blot with an anti-GST antibody.

Assay [5] deals with T7, GST-OB-R-cyto/3myc and GST-SHP2-SH2 (Homo sapiens, UniProt Q06124).
T7 construct: The fusion has aa 2-224 of SHP2 cloned as an EcoRI/BamHI fragment into pGEX-3X; made in house; host or cells: E. coli (OB-R-cyto co-expressed with the ELK tyrosine kinase)
T7 sequence (Q06124 2-224): T5 sequence (Q06124 2-224)
Briefly: Competition for binding of GST-OB-R-cyto/3myc and GST-SHP2-SH2. Conditions: 4 μM phosphopeptide, 15 nM cytoplasmic domain, 200 nM GST-SHP2-SH2. On the procedure: as §2, §3, §4

On to “NT-3: neurotrophin-3, surrogate ligand used to activate the TrkC-OB-R chimeric receptors”, for which, in assay [1], the “tyrosine phosphorylation of TOBR and downstream signaling molecules” value is on record as “resulted in ligand-dependent tyrosine phosphorylation”. Besides, the “increase in luciferase activity” value is reported as ~8 fold in assay [2] and ~45 fold in the assay with TOBRY986F.
Regarding “CPHLKp-YLYLVVSDDYKDDDDK [EPOR phosphopeptide]”, the “binding to GST-SHP1-SH2” value on GST-SHP1-SH2 is “bound”; at GST-SHP1-SH2 (listed as synthetic phosphopeptide from EPOR) it was “Very poor binding”. Besides, in assay [3], the “competition of EPOR-cyto-Trx for GST-SHP1-SH2 binding” value is listed as “a small amount of competition”.
“QPFVKp-YATLISNDYKDDDDK [OB-R phosphopeptide]”: the “binding to GST-SHP2-SH2” value on GST-SHP2-SH2 is “bound specifically”. In addition, the “binding to GST-SHP1-SH2” value on GST-SHP1-SH2 is “bound”. For the same substance, the “competition of EPOR-cyto-Trx for GST-SHP1-SH2 binding” value in assay [3] is “a small amount of competition”. For the same substance, the “competition for binding of GST-OB-R-cyto/3myc and GST-SHP1-SH2” value in assay [4] is “no competition”. In assay [5], the “competition for binding of GST-OB-R-cyto/3myc and GST-SHP2-SH2” value is “no competition”.
